Data on 17 molecules can be found in US12390437B2, “Itaconic acid derivatives and uses thereof intreating an inflammatory disease or a disease associated with an undesirable immune response” (Sitryx Therapeutics Limited, priority 2019, dated 2025).

The nature of series [1]: Mouse pharmacokinetic study, oral administration. Format: in vivo. The following applies: mouse plasma, Example 112 dosed orally at 100 mg/kg (Intermediate 8 = metabolite). On the procedure: Pharmacokinetic studies were carried out in 6-8-week-old male C57BL/6 mice having free access to food and water. Intravenous dosing was conducted at 10 mg/kg (5 mL/kg; vehicle: 10% DMSO-90% (25% HP-13-CD in water)) via tail vein injection, with sampling at 3 min, 8 min, 15 min, 30 min, 1, 2, 4, 6 and 8 hours, i.e., 9 time points in total (N=3/time point), using semi-serial bleeding for plasma. Oral compound administration, via gavage, was carried out at 100 mg/kg (10 mL/kg; vehicle: 5% DMSO-95% (0.5% HPMC+0.1% Tween 80 in water)), with sampling at 5 min, 15 min, 30 min, 1, 2, 4, 6, 8 and 24 hours, i.e., 9 time points in total (N=3/time point), using semi-serial bleeding for plasma.
For both intravenous and oral routes, the mice were restrained manually at the designated time points, with ca. 110 μL of blood being taken into K2EDTA tubes via the facial vein. Blood samples were put on ice and centrifuged to obtain plasma samples from which the concentration at each time point was measured by LC-MS/MS.

In the next series the test system is NRF2. Kind of series: NRF2 +/-GSH activation assay (DiscoverX PathHunter NRF2 translocation kit, U2OS cells). In kind it is cell-based. The conditions noted are these: Homo sapiens. In a few lines: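 PathHunter U2OS cells, plated 24 hrs, measured NRF2 nuclear translocation by enzyme-fragment complementation luminescence after 6 hours compound exposure at 37 °C. For +GSH, compound was pre-incubated 30 minutes with GSH (6 mM working stock). EC50 from % activation normalised to dimethyl fumarate high control.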

The test system of series [2] is IL-6 cytokine output from THP-1s. Briefly: THP-1 AlphaLISA IL-6 cytokine assay. The following applies: for IC50: Homo sapiens. Format: cell-based, human. A digest of the protocol:
(§1)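 PMA-differentiated (72 h) THP-1 cells pretreated 30 min with compound, LPS-stimulated 24 h, then nigericin 1 h at 37 °C. Supernatant IL-1β and IL-6 by AlphaLISA; % inhibition normalised to ±LPS controls, IC50 from concentration-response curves.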
For orientation: Alpha assays give light when donor and acceptor beads are brought close together.

Series [3] concerns IL-1β cytokine output from THP-1s. Kind of series: THP-1 AlphaLISA IL-1β cytokine assay. Format: cell-based, human. The following applies: for IC50: Homo sapiens, read-out: IL-1β (IC50). A digest of the protocol:
as §1

The next series concerns NQO1. Kind of series: NQO1 enzyme activation assay as a readout of NRF2 activation in THP-1 cells. Format: cell-based. The conditions noted are these: Homo sapiens; for Emax: THP-1, percentage activation at top concentration, normalised to DMF (100%) and vehicle controls; for EC50: differentiated THP-1 cells, LPS, 48 hr. On the procedure: NQO1 Enzyme Activation Assay as a Readout of NRF2 Activation in THP-1 Cellular Background
NAD(P)H dehydrogenase [quinone] […] Induction of this gene is concomitant with the inhibition of proinflammatory cytokine transcription and suppression of the inflammatory response (Kobayashi E. H. et al., 2016). The NQO1 enzyme activation activities of compounds of formula (IW-1) were determined using a cellular based NQO1 activation assay (Abcam). The NQO1 activation assay was run in differentiated THP-1 cells (a human monocyte-like cell line) as described below. All reagents described are from Sigma-Aldrich unless specified otherwise. Compounds were prepared as 10 mM DMSO stocks.
THP-1 cells were expanded as a suspension up to 80% confluence in appropriate growth medium. Cells were harvested, suspended, treated with phorbol 12-myristate 13-acetate (PMA) and plated according to the cell density required for each plate format over a 72 hr period (37° C./5% CO2).
Following 72 hrs of THP-1 cell incubation, cellular medium was removed and replaced with fresh media. Working concentrations of compounds were prepared and pre-incubated for 30 minutes (37° C./5% CO2). Compound treatment was then applied to the PMA treated THP-1 cell plate followed by LPS treatment. A ‘low’ (DMSO vehicle only) control and ‘high’ (designated concentration of dimethyl fumarate) was applied to each plate at the point of compound treatment. Cells were subsequently incubated for a 48 hr period (37° C./5% C02) after which all NQO1 assay reagents were prepared according to the manufacturer's instructions. NQO1 extraction buffer was applied to PBS washed THP-1 cells and incubated on ice for 15 minutes to prepare THP-1 lysates for the NQO1 activity assay. THP-1 lysates were diluted 1:5 with PBS and treated with a 1:1 volume of kit prepared NQO1 Reaction Buffer. Absorbance was subsequently measured kinetically on an appropriate reader over a 6 minute period.
For activation determination, the fold change in response per well was determined by first calculating the average NQO1 activation data for the vehicle control and then dividing the individual well response by the averaged NQO1 response for the vehicle control as shown below: Fold change=(Sample value)/MeanMin Where ‘Min’=vehicle control only
The relative 50% activation concentration (EC50) was determined from the resulting fold change response curve. The maximum efficacy (Emax) was reported as the percentage activation calculated at the top concentration of compound used in the titration applied. If a full curve was unattainable preventing a correct curve fit, the Emax value was extrapolated using existing curve data. All percentage activation data were normalised to the DMF and vehicle controls, meaning the Emax represents the percentage […] achieved by a compound at a particular concentration relative to that achieved by DMF (set as the ‘High’ control and therefore representative of 100% activation).

[4] abbreviates: Table 10, assay of Biological Example 1 (THP-1).
Setting [5] is: U2OS, normalised to dimethyl fumarate 'High' control, GSH condition not stated in Table 5, read-out: NRF2 activation Emax.
The mark [6] stands for this setting: U2OS PathHunter cells, 6 hours, GSH condition not stated in Table 5, read-out: NRF2 activation EC50.
Setting [7] is: PMA-differentiated THP-1 cells, LPS 24 hr then Nigericin 1 hour.
Where [8] appears, read: THP-1, PMA-differentiated THP-1 cells, LPS 24 hr then Nigericin 1 hour.

Read-outs that look alike come from different tables or passages of the source.

One may read the EC50 as the midpoint of the concentration-response curve. As a reminder, the Emax is the maximal effect, on the per cent scale that the assay sets. The term IC50 denotes the point on the concentration scale where inhibition reaches its midpoint.

Regarding `C=C(CC(=O)O[C@H](C)CCCCCC)C(=O)O` [Intermediate 8, (R)-2-methylene-4-(octan-2-yloxy)-4-oxobutanoic acid], the concentration at 0.083 h in series [1] (male, C57BL/6, po, time 0.083 h, read-out: Example 112 and Intermediate 8 concentrations following oral administration) came to 18500 ng/mL. The concentration at 0.25 h in series [1] (male, C57BL/6, po, time 0.25 h, read-out: Example 112 and Intermediate 8 concentrations following oral administration) was found to be 19800 ng/mL. In addition, in series [1] (male, C57BL/6, po, time 0.5 h, read-out: Example 112 and Intermediate 8 concentrations following oral administration), the concentration at 0.5 h worked out at 12800 ng/mL. Further, the concentration at 1 h in series [1] (male, C57BL/6, po, time 1 h, read-out: Example 112 and Intermediate 8 concentrations following oral administration) worked out at 4710 ng/mL. Besides, the concentration at 2 h in series [1] (male, C57BL/6, po, time 2 h, read-out: Example 112 and Intermediate 8 concentrations following oral administration) was determined as 2160 ng/mL. The concentration at 4 h in series [1] (male, C57BL/6, po, time 4 h, read-out: Example 112 and Intermediate 8 concentrations following oral administration) came to 719 ng/mL. Besides, the concentration at 6 h in series [1] (male, C57BL/6, po, time 6 h, read-out: Example 112 and Intermediate 8 concentrations following oral administration) was determined as 614 ng/mL. Further, the concentration at 8 h in series [1] (male, C57BL/6, po, time 8 h, read-out: Example 112 and Intermediate 8 concentrations following oral administration) was 132 ng/mL. Also, the “Example 112 and Intermediate 8 concentrations following oral administration” value in series [1] (time 24 h) is listed as “BQL”. Also, the EC50 in the series on NRF2 (U2OS, Table 10, assay of Biological Example 5 (NRF2), read-out: EC50) came to 20.4 µM. Further, in the series on NRF2 (U2OS, Table 10, assay of Biological Example 5 (NRF2), read-out: Emax), the Emax worked out at 165%. Besides, in series [2] (setting [4]), half-maximal inhibition (IC50) required 23.7 µM and the “IL-6 (IC50)” value is on record as “improved cytokine-lowering potencies compared to dimethyl itaconate”. Moreover, in series [3] (THP-1, Table 10, assay of Biological Example 1 (THP-1)), the IC50 stood at 56.7 µM. Further, the “IL-1β (IC50)” value in series [3] (setting [4]) was “improved cytokine-lowering potencies compared to dimethyl itaconate”.

In the series on NQO1, `C=C(CC(=O)OCCCC)C(=O)OCCC#N` [Example 8, 1-(2-cyanoethyl) 4-butyl 2-methylenesuccinate] yielded a maximum response (Emax) of 152% and a concentration for a half-maximal effect (EC50) of 35.4 µM.

In the series with NQO1, `C=C(CC(=O)OC1CCCCCCC1)C(=O)OC` [Example 41, 4-cyclooctyl 1-methyl 2-methylenesuccinate] returned an Emax of 129% and an EC50 of 38.1 µM.

In the series on NQO1, `C=C(CC(=O)OCCCC)C(=O)OC1COC1` [Example 37, 4-butyl 1-(oxetan-3-yl) 2-methylenesuccinate] returned an Emax of 105% and an EC50 of 21 µM.

As for `C=C(CC(=O)OC1COC1)C(=O)OC1COC1` [Example 44, di(oxetan-3-yl) 2-methylenesuccinate], in the series with NQO1, the Emax was 217% and the concentration giving a half-maximal response (EC50) was determined as 64.6 µM.

As for `C=C(CC(=O)OCCCCCCCC)C(=O)OC` [Example 42, 1-methyl 4-octyl 2-methylenesuccinate], in the series with NQO1, the Emax was 66% and a half-maximal effect (EC50) was put at 24.3 µM.

As to `C=C(CC(=O)OCCCCCC)C(=O)OCCC(=O)O` [Example 85, 3-((4-(hexyloxy)-2-methylene-4-oxobutanoyl)oxy)propanoic acid], the maximum response (Emax) in the series with NRF2 (setting [5]) came out at 163%. In addition, the EC50 in the series on NRF2 (setting [6]) is 25 µM. Also, the IC50 in series [2] (setting [7]) is 18.6 µM; in series [3] (setting [8]), 22.6 µM.

With `C=C(CC(=O)OCCCCCCCC)C(=O)OC1CN(C(C)=O)C1` [Example 50, 1-(1-acetylazetidin-3-yl) 4-octyl 2-methylenesuccinate], the Emax with NRF2 (setting [5]) is 225%. Further, the EC50 with NRF2 (setting [6]) was found to be 3.2 µM. Further, the IC50 in series [2] (setting [7]) turned out to be 1.7 µM; in series [3] (setting [8]), 2.7 µM.

In the series on NQO1, `C=C(CC(=O)OC1CCC1)C(=O)OC1CCC1` [Example 43, dicyclobutyl 2-methylenesuccinate] gave a maximal effect (Emax) of 150% and an EC50 of 170 µM.

For the molecule `C=C(CC(=O)OCc1ccc(F)cc1)C(=O)OCC(=O)O` [Example 93, 2-((4-((4-fluorobenzyl)oxy)-2-methylene-4-oxobutanoyl)oxy)acetic acid], the Emax in the series on NRF2 (setting [5]) turned out to be 118%. In the series with NRF2 (setting [6]), the EC50 is 36 µM. The IC50 in series [2] (setting [7]) turned out to be 28.1 µM; in series [3] (setting [8]), 73.8 µM.

As to `C=C(CC(=O)OCc1ccc(F)cc1)C(=O)OCCC(=O)O` [Example 81, 3-((4-((4-fluorobenzyl)oxy)-2-methylene-4-oxobutanoyl)oxy)propanoic acid], the Emax in the series with NRF2 (setting [5]) stood at 110%. Besides, the EC50 with NRF2 (setting [6]) was 24.9 µM. For the same molecule, the IC50 in series [2] (setting [7]) came out at 52.1 µM; in series [3] (setting [8]), 100 µM.

On to `C=C(CC(=O)OCCCCCCCC)C(=O)OCC(=O)N(C)CC(=O)O` [Example 98, 2-(N-methyl-2-((2-methylene-4-(octyloxy)-4-oxobutanoyl)oxy)acetamido)acetic acid], for which, in the series on NRF2 (setting [5]), the Emax came to 193%. The EC50 in the series with NRF2 (setting [6]) is 14.7 µM. Further, the IC50 in series [2] (setting [7]) was determined as 4.3 µM; in series [3] (setting [8]), 2.1 µM.

Turning to `C=C(CC(=O)OCCCCCCCC)C(=O)OC(C)C(=O)N(C)CC(=O)O` (stereo not shown) [Example 100, N-methyl-N-(2-((2-methylene-4-(octyloxy)-4-oxobutanoyl)oxy)propanoyl)glycine], in the series with NRF2 (setting [5]), the Emax came out at 195%. Further, the EC50 in the series on NRF2 (setting [6]) turned out to be 48.7 µM. The results for the IC50 in series [2] (setting [7]) and in series [3] (setting [8]) were 5.1 µM and 11 µM, respectively.

For the molecule `C=C(CC(=O)OCC(C)(C)C)C(=O)OCC(=O)O` [Example 92, 2-((2-methylene-4-(neopentyloxy)-4-oxobutanoyl)oxy)acetic acid], the Emax in the series with NRF2 (setting [5]) was found to be 109%. In addition, the concentration for a half-maximal effect (EC50) in the series with NRF2 (setting [6]) turned out to be 37.8 µM. Besides, the figures for the half-inhibitory concentration (IC50) in series [2] (setting [7]) and in series [3] (setting [8]) were 21.2 µM and 75.3 µM, respectively.

Consider `C=C(CC(=O)OCCCCCCCC)C(=O)OCCOC(F)(F)F` [Example 13, 4-octyl 1-(2-(trifluoromethoxy)ethyl) 2-methylenesuccinate], for which, in the series on NQO1, the maximum response (Emax) turned out to be 45% and a half-maximal effect (EC50) was put at 2.8 µM.

In the series on NQO1, `C=C(CC(=O)OCCCCCCCC)C(=O)OC1CCC1` [Example 45, 1-cyclobutyl 4-octyl 2-methylenesuccinate] returned an Emax of 72% and a 50% effective concentration (EC50) of 1.6 µM.

Take `C=C(CC(=O)OCCCCCCCC)C(=O)OCCCS(C)(=O)=O` [Example 18, 1-(3-(methylsulfonyl)propyl) 4-octyl 2-methylenesuccinate]: in the series with NQO1, the Emax stood at 67% and the EC50 stood at 5.4 µM.
